Structures are written as SMILES.

In experiment [1] the test system is Saccharomyces cerevisiae. Nature of the experiment: Ratio of Km of fructose bis-phosphate for yeast Fba to Ki of compound for yeast Fba.
The nature of experiment [2]: Inhibition of Helicobacter pyroli recombinant Fba expressed in Escherichia coli JM 109. Also on record: species or system Helicobacter pylori.
Experiment [3] is filed under the species Oryctolagus cuniculus. Description: Ratio of Km of fructose bis-phosphate for rabbit Fba to Ki of compound for rabbit Fba.
Experiment [4] is described as follows: Inhibition of yeast Fba. Also noted: species or system Saccharomyces cerevisiae.
Experiment [5] in a line: Inhibition of rabbit muscle Fba. Also noted: species or system Oryctolagus cuniculus.
For experiment [6], the system named is Helicobacter pylori. Description: Ratio of Km of fructose bis-phosphate for Helicobacter pyroli recombinant Fba to Ki of compound for Helicobacter pyroli recombinant Fba.

As for `O=P(O)(O)OC[C@@H](O)[C@@H](O)[C@H](O)[C@H](O)COP(=O)(O)O`, the Ratio in experiment [1] amounted to 0.5; in experiment [3], 2.74; in experiment [6], 0.27. The inhibitory constant (Ki) in experiment [2] was found to be 73 nM; in experiment [4] it was 400 nM; in experiment [5], 7300 nM.
In the case of `O=P(O)(O)OC[C@@H](O)[C@@H](O)[C@H](O)[C@@H](O)COP(=O)(O)O`, the Ratio was found to be 3.33 in experiment [1], 0.2 in experiment [3] and 0.12 in experiment [6]. In addition, the Ki in experiment [2] was found to be 170 nM; in experiment [4] it was 60 nM; in experiment [5], 100000 nM.

Values taken from ChEMBL document CHEMBL1141517 (Bioorg Med Chem Lett, 2008).
